Test results as given in BindingDB's records for doi:10.1021/jm0001626 (Signal Pharmaceuticals, 2000).

Biological target: Transcription factor Jun (Homo sapiens, UniProt P05412)
Assay: Concentration required to inhibit activator protein-1(AP-1) mediated transcriptional activation in human Jurkat T-cells

Chain of Transcription factor Jun (P05412 whole entry): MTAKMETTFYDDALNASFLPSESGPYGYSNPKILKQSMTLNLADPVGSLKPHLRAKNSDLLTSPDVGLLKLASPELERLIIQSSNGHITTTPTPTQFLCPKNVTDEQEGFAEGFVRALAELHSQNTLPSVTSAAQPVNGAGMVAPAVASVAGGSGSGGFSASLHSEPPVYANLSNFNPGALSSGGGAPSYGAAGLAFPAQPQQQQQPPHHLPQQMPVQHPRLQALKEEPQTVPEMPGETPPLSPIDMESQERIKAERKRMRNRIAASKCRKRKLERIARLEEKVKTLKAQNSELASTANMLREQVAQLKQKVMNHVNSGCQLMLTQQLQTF

Point of comparison: O=C(Nc1cc(C(F)(F)F)cc(C(F)(F)F)c1)c1cnc(Cl)nc1C(F)(F)C(F)(F)F [2-Chloro-4-pentafluoroethyl-pyrimidine-5-carboxylic acid (3,5-bis-trifluoromethyl-phenyl)-amide], IC50 0.6 µM. Against it:
- O=C(Nc1cc(C(F)(F)F)cc(C(F)(F)F)c1)c1cnc(C(F)(F)F)nc1C(F)(F)F [2,4-Bis-trifluoromethyl-pyrimidine-5-carboxylic acid (3,5-bis-trifluoromethyl-phenyl)-amide] — higher, > 10 µM
- O=C(Nc1cc(C(F)(F)F)cc(C(F)(F)F)c1)c1cc(Cl)nc(Cl)n1 [2,6-Dichloro-pyrimidine-4-carboxylic acid (3,5-bis-trifluoromethyl-phenyl)-amide] — higher, > 10 µM
- CCc1nc(Cl)ncc1C(=O)Nc1cc(C(F)(F)F)cc(C(F)(F)F)c1 [2-Chloro-4-ethyl-pyrimidine-5-carboxylic acid (3,5-bis-trifluoromethyl-phenyl)-amide] — 2-fold lower, 0.3 µM
- CCCc1nc(Cl)ncc1C(=O)Nc1cc(C(F)(F)F)cc(C(F)(F)F)c1 [2-Chloro-4-propyl-pyrimidine-5-carboxylic acid (3,5-bis-trifluoromethyl-phenyl)-amide] — within 1.5-fold, 0.5 µM
- O=C(Nc1cc(C(F)(F)F)cc(C(F)(F)F)c1)c1cnc(Cl)nc1-c1cccs1 [2-Chloro-4-thiophen-2-yl-pyrimidine-5-carboxylic acid (3,5-bis-trifluoromethyl-phenyl)-amide] — 13-fold higher, 8 µM
- Cc1cc(C(=O)Nc2cc(C(F)(F)F)cc(C(F)(F)F)c2)nc(Cl)n1 [2-Chloro-6-methyl-pyrimidine-4-carboxylic acid (3,5-bis-trifluoromethyl-phenyl)-amide] — higher, > 10 µM
- O=C(Nc1cc(C(F)(F)F)cc(C(F)(F)F)c1)c1cc(C(F)(F)F)nc(Cl)n1 [2-Chloro-6-trifluoromethyl-pyrimidine-4-carboxylic acid (3,5-bis-trifluoromethyl-phenyl)-amide] — higher, > 10 µM
- O=C(Nc1cc(C(F)(F)F)cc(C(F)(F)F)c1)c1cnc(Cl)nc1 [2-Chloro-pyrimidine-5-carboxylic acid (3,5-bis-trifluoromethyl-phenyl)-amide] — 2-fold lower, 0.3 µM
- N#Cc1ncc(C(=O)Nc2cc(C(F)(F)F)cc(C(F)(F)F)c2)c(C(F)(F)F)n1 [2-Cyano-4-trifluoromethyl-pyrimidine-5-carboxylic acid (3,5-bis-trifluoromethyl-phenyl)-amide] — higher, > 10 µM
- Cc1ncc(C(=O)Nc2cc(C(F)(F)F)cc(C(F)(F)F)c2)c(C(F)(F)F)n1 [2-Methyl-4-trifluoromethyl-pyrimidine-5-carboxylic acid (3,5-bis-trifluoromethyl-phenyl)-amide] — higher, > 10 µM
- O=C(Nc1cc(C(F)(F)F)cc(C(F)(F)F)c1)c1cnc(-c2ccccc2)nc1 [2-Phenyl-pyrimidine-5-carboxylic acid (3,5-bis-trifluoromethyl-phenyl)-amide] — higher, > 10 µM
- O=C(Nc1cc(C(F)(F)F)cc(C(F)(F)F)c1)c1cnc(C(F)(F)F)nc1 [2-Trifluoromethyl-pyrimidine-5-carboxylic acid (3,5-bis-trifluoromethyl-phenyl)-amide] — higher, > 10 µM
- O=C(Nc1cc(C(F)(F)F)cc(C(F)(F)F)c1)c1cnc(C(F)(F)F)nc1Cl [4-Chloro-2-trifluoromethyl-pyrimidine-5-carboxylic acid (3,5-bis-trifluoromethyl-phenyl)-amide] — higher, > 10 µM
- Cc1nc(C(F)(F)F)ncc1C(=O)Nc1cc(C(F)(F)F)cc(C(F)(F)F)c1 [4-Methyl-2-trifluoromethyl-pyrimidine-5-carboxylic acid (3,5-bis-trifluoromethyl-phenyl)-amide] — higher, > 10 µM
- O=C(Nc1cc(C(F)(F)F)cc(C(F)(F)F)c1)c1ccc(Cl)cc1C(F)(F)F [N-(3,5-Bis-trifluoromethyl-phenyl)-4-chloro-2-trifluoromethyl-benzamide] — higher, > 30 µM
